Measurements taken from ChEMBL document CHEMBL4311969, “Polygala tenuifolia-Acori tatarinowii herbal pair as an inspiration for substituted cinnamic α-asaronol esters: Design, synthesis, anticonvulsant activity, and inhibition of lactate dehydrogenase study” (Eur J Med Chem, 2019).
Where “and” joins values, the source holds several entries; their conditions need not be identical. Equal entries are not always repeated. Calls of active or inactive are those of the source. No cut-off for these calls is given here.

Legend:
[1] = test system: Mus musculus; test: Anticonvulsant activity in Kunming mouse assessed as reduction in ScPTZ-induced tonic seizure rate at 300 mg/kg, ip administered 0.5 hrs before ScPTZ stimulation relative to control; format: functional; design: scale not given: the % may be the effect or the level left
[2] = test system: Mus musculus; test: […] activity in ip dosed Kunming mouse assessed as reduction in formalin-induced paw licking administered 0.5 hrs before formalin stimulation; format: functional
[3] = test system: Mus musculus; test: Anticonvulsant activity in Kunming mouse assessed as reduction in ScPTZ-induced seizure at 100 mg/kg, ip administered 0.5 hrs before ScPTZ stimulation relative to control; format: functional; design: scale not given: the % may be the effect or the level left
[4] = organism: Homo sapiens; test: Inhibition of human LDH5 at 0.5 mM using sodium pyruvate as substrate by UV-VIS spectrophotometry method relative to control
[5] = test system: Mus musculus; test: Anticonvulsant activity in Kunming mouse assessed as reduction in Sc3-MP-induced mortality rate at 300 mg/kg, ip administered 0.5 hrs before Sc3-MP stimulation relative to control; format: functional; design: scale not given: the % may be the effect or the level left
[6] = test system: Mus musculus; test: Anticonvulsant activity in Kunming mouse assessed as reduction in ScPTZ-induced seizure at 100 mg/kg, ip administered 0.25 to 2 hrs before ScPTZ stimulation relative to control; format: functional
[7] = test system: Mus musculus; test: Anticonvulsant activity in Kunming mouse assessed as MES-induced hind limb extension at 100 mg/kg, ip administered 0. 5 to 4 hrs before MES stimulation relative to control; format: functional
[8] = test system: Mus musculus; test: Anticonvulsant activity in Kunming mouse assessed as MES-induced hind limb extension at 50 mg/kg, ip administered 0.5 and 2 hrs before MES stimulation relative to control; format: functional
[9] = test system: Mus musculus; test: Anticonvulsant activity in Kunming mouse assessed as reduction in ScPTZ-induced clonic seizure at 300 mg/kg, ip administered 0.5 hrs before ScPTZ stimulation relative to control; format: functional; design: scale not given: the % may be the effect or the level left
[10] = test system: Mus musculus; test: Anticonvulsant activity in Kunming mouse assessed as reduction in ScPTZ-induced seizure at 300 mg/kg, ip administered 0.25 to 2 hrs before ScPTZ stimulation relative to control; format: functional; design: scale not given: the % may be the effect or the level left
[11] = test system: Mus musculus; test: Anticonvulsant activity in Kunming mouse assessed as reduction in Sc3-MP-induced clonic seizure rate at 300 mg/kg, ip administered 0.5 hrs before Sc3-MP stimulation relative to control; format: functional; design: scale not given: the % may be the effect or the level left
[12] = test system: Mus musculus; test: Anticonvulsant activity in ip dosed Kunming mouse assessed as reduction in ScPTZ-induced seizure administered 0.5 hrs before ScPTZ stimulation; format: functional
[13] = Neurotoxicity against Kunming mouse assessed as time remained in rod at 100 mg/kg, ip administered 0.5 to 2 hrs by rotarod test; format: toxicity, organism-based; conditions: in vivo
[14] = test system: Mus musculus; test: Anticonvulsant activity in Kunming mouse assessed as MES-induced hind limb extension at 50 mg/kg, ip administered 0.5 to 4 hrs before MES stimulation relative to control; format: functional
[15] = test system: Mus musculus; test: Anticonvulsant activity in Kunming mouse assessed as reduction in ScPTZ-induced clonic seizure at 100 mg/kg, ip administered 0.5 hrs before ScPTZ stimulation relative to control; format: functional; design: scale not given: the % may be the effect or the level left
[16] = test system: Mus musculus; test: Anticonvulsant activity in Kunming mouse assessed as reduction in Sc3-MP-induced seizure ip dosed measured at 0.5 hrs before Sc3-MP stimulation; format: functional
[17] = (§1) Protective index, ratio of TD50 for neurotoxicity against ip dosed Kunming mouse assessed as time remained in rod measured at 0.5 hrs by rotarod test to ED50 for […] activity in ip dosed Kunming mouse assessed as reduction in formalin-induced paw licking administered 0.5 hrs before formalin stimulation; format: toxicity, organism-based; conditions: in vivo, read-out: PI
[18] = Neurotoxicity against ip dosed Kunming mouse assessed as time remained in rod measured at 0.5 hrs by rotarod test; format: toxicity, organism-based; conditions: in vivo
[19] = test system: Mus musculus; test: Anticonvulsant activity in Kunming mouse assessed as reduction in Sc3-MP-induced tonic seizure rate at 300 mg/kg, ip administered 0.5 hrs before Sc3-MP stimulation relative to control; format: functional; design: scale not given: the % may be the effect or the level left
[20] = test system: Mus musculus; test: Anticonvulsant activity in Kunming mouse assessed as MES-induced hind limb extension at 100 mg/kg, ip administered 0. 5 to 2 hrs before MES stimulation; format: functional, organism-based
[21] = test system: Mus musculus; test: Anticonvulsant activity in ip dosed Kunming mouse assessed as MES-induced hind limb extension administered 0.5 hrs before MES stimulation; format: functional
[22] = as §1, with “Sc3-MP-induced seizure” for “formalin-induced paw licking”, “Sc3-MP” for “formalin”; format: toxicity, organism-based; conditions: in vivo, read-out: PI
[23] = organism: Homo sapiens; test: Inhibition of human LDH1 at 0.5 mM using sodium pyruvate as substrate by UV-VIS spectrophotometry method relative to control
[24] = test system: Mus musculus; test: Anticonvulsant activity in Kunming mouse assessed as reduction in ScPTZ-induced tonic seizure rate at 100 mg/kg, ip administered 0.5 hrs before ScPTZ stimulation relative to control; format: functional; design: scale not given: the % may be the effect or the level left
[25] = Protective index, ratio of TD50 for neurotoxicity against ip dosed Kunming mouse assessed as time remained in rod measured at 0.5 hrs by rotarod test to ED50 for anticonvulsant activity in ip dosed Kunming mouse assessed as MES-induced hind limb extension administered 0.5 hrs; format: toxicity, organism-based; conditions: in vivo, read-out: PI
[26] = as §1, with “ScPTZ-induced seizure” for “formalin-induced paw licking”, “ScPTZ” for “formalin”; format: toxicity, organism-based; conditions: in vivo, read-out: PI
[27] = test system: Mus musculus; test: Anticonvulsant activity in Kunming mouse assessed as reduction in ScPTZ-induced seizure at 100 mg/kg, ip administered 1 hr relative to control; format: functional; design: scale not given: the % may be the effect or the level left
[28] = organism: Homo sapiens; test: Inhibition of human LDH5 assessed as remaining activity at 0.5 mM using sodium pyruvate as substrate by UV-VIS spectrophotometry method relative to control
[29] = organism: Homo sapiens; test: Inhibition of human LDH1 assessed as remaining activity at 0.5 mM using sodium pyruvate as substrate by UV-VIS spectrophotometry method relative to control
[30] = test system: Mus musculus; test: Anticonvulsant activity in Kunming mouse assessed as MES-induced hind limb extension at 100 mg/kg, ip administered 0. 5 hrs before MES stimulation relative to control; format: functional
[31] = Noncompetitive inhibition of human LDH1 at 0.5 mM using sodium pyruvate as substrate by UV-VIS spectrophotometry method based Lineweaver-Burk plot analysis
[32] = Noncompetitive inhibition of human LDH5 at 0.5 mM using sodium pyruvate as substrate by UV-VIS spectrophotometry method based Lineweaver-Burk plot analysis

Row | SMILES | Activity [1] | ED50 [2] | inhibition [4] | Activity [5] | Activity [6] | Activity [7] | Activity [8] | Activity [9] | Activity [10] | Activity [11] | ED50 [12] | Activity [13] | Activity [14] | Activity [15] | ED50 [16] | selectivity ratio at 0.5 h [17] | TD50 at 0.5 h [18] | Activity [19] | Activity [20] | ED50 [21] | other results
1 | COc1cc(OC)c(OC)cc1/C=C/COC(=O)/C=C/c1ccc(OC)c(OC)c1 | 0% | 93.3 mg/kg and 225 µmol/kg | Active | 25% | inactive | 25 - 100% | 50% | 100% | 50% | 100% | 173 mg/kg and 418 µmol/kg | Non-Toxic | 50% | 100% | > 300 mg/kg and > 724 µmol/kg | > 10.7 | > 1000 mg/kg and > 2410 µmol/kg | 75% | Active | 58.1 mg/kg and 140 µmol/kg | Activity [3]: 100%; selectivity ratio at 0.5 h [22]: 3.3; inhibition [23]: Active; Activity [24]: 100%; selectivity ratio at 0.5 h [25]: > 17.2; selectivity ratio at 0.5 h [26]: > 5.8; Activity [27]: 75%
2 | NC(=O)N1c2ccccc2C=Cc2ccccc21 [CARBAMAZEPINE] | – | – | – | – | – | – | – | – | – | – | > 100 mg/kg and > 423 µmol/kg | – | – | – | – | – | 303 µmol/kg | – | – | 18.1 mg/kg and 76.5 µmol/kg | Activity [28]: 100%; Activity [29]: 100%
3 | COc1cc(OC)c(OC)cc1/C=C/COC(=O)/C=C/c1c(OC)ccc(OC)c1OC | 50% | 180 to 225 µmol/kg | Active | 25% | inactive | 25 - 100% | 50% | 100% | 50% | 100% | 212 mg/kg and 476 µmol/kg | Non-Toxic | 50% | 100% | > 300 mg/kg and > 675 µmol/kg | 12.5 | > 1000 mg/kg and > 2250 µmol/kg | 75% | Active | 120 µmol/kg and 53.5 mg/kg | Activity [30]: 100%; Ki [31]: 12 µM; Ki [32]: 3.52 µM; selectivity ratio at 0.5 h [22]: 3.3; inhibition [23]: Active; Activity [24]: 100%; selectivity ratio at 0.5 h [25]: > 18.7; selectivity ratio at 0.5 h [26]: 4.72
